Test results published in article PMC11096414 (Nature Communications, 2024).

Legend:
Assay type in all cases: cell-based
IKKβ [1] = biological target: T1, IKKβ (Homo sapiens, UniProt O14920); test: competition with 4-OI-alk in affinity pull-down, immunoblot; conditions: covalent; 125 μM 4-OI for 30 min, then 125 μM 4-OI-alk for 4 h in intact 786-O cells
T1 construct: gene IKBKB; endogenous full-length protein in 786-O cells, detected by anti-IKKβ immunoblot
T1 sequence (O14920 1-756): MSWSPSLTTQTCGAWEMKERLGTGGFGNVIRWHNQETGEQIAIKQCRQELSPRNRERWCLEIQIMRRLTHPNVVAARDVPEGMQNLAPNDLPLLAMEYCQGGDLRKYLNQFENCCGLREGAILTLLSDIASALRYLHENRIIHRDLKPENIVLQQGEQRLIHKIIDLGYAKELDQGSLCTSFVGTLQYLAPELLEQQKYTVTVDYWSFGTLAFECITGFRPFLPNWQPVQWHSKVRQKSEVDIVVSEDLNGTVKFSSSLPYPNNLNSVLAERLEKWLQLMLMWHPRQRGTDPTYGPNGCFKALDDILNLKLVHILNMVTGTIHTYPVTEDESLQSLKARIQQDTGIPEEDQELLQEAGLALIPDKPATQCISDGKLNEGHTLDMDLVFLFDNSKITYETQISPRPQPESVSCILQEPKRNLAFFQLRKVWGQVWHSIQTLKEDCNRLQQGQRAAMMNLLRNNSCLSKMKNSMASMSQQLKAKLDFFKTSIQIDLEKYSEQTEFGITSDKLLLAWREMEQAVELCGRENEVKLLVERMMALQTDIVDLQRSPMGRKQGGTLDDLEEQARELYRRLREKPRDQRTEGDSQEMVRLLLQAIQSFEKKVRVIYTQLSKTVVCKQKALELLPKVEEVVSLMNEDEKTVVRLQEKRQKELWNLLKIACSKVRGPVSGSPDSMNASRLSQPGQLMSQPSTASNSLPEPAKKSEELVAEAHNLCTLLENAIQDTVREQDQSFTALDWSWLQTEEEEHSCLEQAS

MAVS [2] = biological target: T2, MAVS (Homo sapiens, UniProt Q7Z434); test: as above; conditions: covalent; 125 μM 4-OI for 30 min, then 125 μM 4-OI-alk for 4 h in intact 786-O cells
T2 construct: endogenous full-length protein in 786-O cells, detected by anti-MAVS immunoblot
T2 sequence (Q7Z434 2-540): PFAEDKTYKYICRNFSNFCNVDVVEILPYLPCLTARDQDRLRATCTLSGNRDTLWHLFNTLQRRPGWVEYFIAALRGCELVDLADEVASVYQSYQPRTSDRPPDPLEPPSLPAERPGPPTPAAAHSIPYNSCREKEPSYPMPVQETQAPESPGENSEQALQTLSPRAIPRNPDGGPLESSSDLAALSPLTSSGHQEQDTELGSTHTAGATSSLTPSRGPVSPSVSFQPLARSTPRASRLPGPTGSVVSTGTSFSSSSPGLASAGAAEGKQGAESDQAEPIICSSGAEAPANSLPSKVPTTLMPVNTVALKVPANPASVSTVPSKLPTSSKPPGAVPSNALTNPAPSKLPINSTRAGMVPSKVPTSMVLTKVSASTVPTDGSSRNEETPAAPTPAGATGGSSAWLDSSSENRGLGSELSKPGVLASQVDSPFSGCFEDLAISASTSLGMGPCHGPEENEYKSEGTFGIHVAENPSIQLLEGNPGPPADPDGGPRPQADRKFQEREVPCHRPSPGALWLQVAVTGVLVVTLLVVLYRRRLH

JAK1 = biological target: T3, JAK1 (Homo sapiens, UniProt P23458); test: alkyne probe labelling in cells, CuAAC to biotin azide, streptavidin pull-down, immunoblot; conditions: covalent; 125 μM in intact 786-O cells
T3 construct: endogenous full-length protein in 786-O cells, detected by anti-Jak1 immunoblot
T3 sequence (P23458 whole entry): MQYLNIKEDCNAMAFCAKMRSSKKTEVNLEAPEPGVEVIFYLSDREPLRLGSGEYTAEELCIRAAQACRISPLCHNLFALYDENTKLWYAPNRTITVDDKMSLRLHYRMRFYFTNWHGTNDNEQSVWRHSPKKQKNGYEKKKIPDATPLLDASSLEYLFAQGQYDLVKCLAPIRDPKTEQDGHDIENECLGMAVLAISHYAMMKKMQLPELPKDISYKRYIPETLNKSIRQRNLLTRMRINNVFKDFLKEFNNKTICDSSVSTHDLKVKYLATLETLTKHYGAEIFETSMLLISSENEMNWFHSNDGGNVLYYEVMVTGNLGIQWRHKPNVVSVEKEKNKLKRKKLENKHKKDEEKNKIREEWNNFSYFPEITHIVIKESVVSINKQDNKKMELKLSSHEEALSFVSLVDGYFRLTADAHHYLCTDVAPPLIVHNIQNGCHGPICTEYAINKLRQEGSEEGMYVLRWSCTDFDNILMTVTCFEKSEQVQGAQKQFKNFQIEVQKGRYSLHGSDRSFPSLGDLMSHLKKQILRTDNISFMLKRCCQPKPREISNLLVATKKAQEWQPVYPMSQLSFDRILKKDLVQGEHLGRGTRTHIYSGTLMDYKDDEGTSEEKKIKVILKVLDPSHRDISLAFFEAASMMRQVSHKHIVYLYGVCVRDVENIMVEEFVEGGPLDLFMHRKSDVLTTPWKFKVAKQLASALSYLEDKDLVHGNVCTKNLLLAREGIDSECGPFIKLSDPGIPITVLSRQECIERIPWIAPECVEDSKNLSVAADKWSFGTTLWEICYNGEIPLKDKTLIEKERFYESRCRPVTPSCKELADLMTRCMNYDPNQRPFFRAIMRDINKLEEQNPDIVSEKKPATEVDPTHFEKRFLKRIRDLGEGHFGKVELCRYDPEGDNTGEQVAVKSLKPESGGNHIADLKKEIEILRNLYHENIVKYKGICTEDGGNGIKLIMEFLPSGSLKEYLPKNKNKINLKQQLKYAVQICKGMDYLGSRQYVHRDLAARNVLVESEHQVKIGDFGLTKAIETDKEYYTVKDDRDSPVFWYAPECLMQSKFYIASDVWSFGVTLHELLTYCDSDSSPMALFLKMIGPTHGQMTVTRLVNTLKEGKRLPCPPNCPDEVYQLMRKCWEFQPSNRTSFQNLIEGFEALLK

MAVS [3] = biological target: T2, MAVS; test: as above; conditions: covalent; 125 μM, 4 or 24 h in intact 786-O cells
IKKβ [4] = biological target: T1, IKKβ; test: as above; conditions: covalent; 125 μM in intact 786-O cells
Flag-MAVS = biological target: T4, Flag-MAVS (Homo sapiens, UniProt Q7Z434); test: alkyne probe labelling in transfected cells, CuAAC to biotin azide, streptavidin pull-down, anti-Flag immunoblot; conditions: covalent; 125 μM, 4 h in intact HEK293T cells
T4 construct: Flag-tagged MAVS expressed from plasmid in HEK293T cells
T4 sequence (Q7Z434 2-540): as the sequence (Q7Z434 2-540) above

Row | SMILES | competition with 4-OI-alk in affinity pull-down, immunoblot (IKKβ [1]) | competition with 4-OI-alk in affinity pull-down, immunoblot (MAVS [2]) | alkyne probe labelling in cells, CuAAC to biotin azide, streptavidin pull-down, (JAK1) | alkyne probe labelling in cells, CuAAC to biotin azide, streptavidin pull-down, (MAVS [3]) | alkyne probe labelling in cells, CuAAC to biotin azide, streptavidin pull-down, (IKKβ [4]) | alkyne probe labelling in transfected cells, CuAAC to biotin azide, streptavidin (Flag-MAVS)
1 | C=C(CC(=O)OCCCCCCCC)C(=O)O [4-OI, 4-octyl itaconate] | non-tagged 4-OI competed with 4-OI-alk and reduced the interaction between IKKβ and 4-OI-alk | non-alkyne-tagged 4-OI to compete with 4-OI-alk led to a reduced interaction between MAVS and 4-OI-alk | – | – | – | –
2 | C#CCCCCCCOC(=O)CC(=C)C(=O)O [4-OI-alk, 2-methylene-4-(oct-7-yn-1-yloxy)−4-oxobutanoic acid] | – | – | We confirmed the binding of 4-OI-alk to JAK1 in our cellular model | We observed an enrichment in 4-OI-alk labeling of MAVS, demonstrating the protein-drug interaction | We further validated the interaction between IKKβ and 4-OI-alk in cancer cells by pull-down | partial reduction of 4-OI-alk labeling of MAVS C283A compared to MAVS wt
